# Measurements as given in PMC12379159 (Journal of Natural Products, 2025).
# Residue numbers refer to the chain shown, from its start. pIC50: −log10 of the molar value.
# What was measured:
# EL-4-mRORγt cells = assay: Resazurin conversion assay in EL-4-mRORγt cells; type: cell-based, murine; conditions: 5 μM, 20-24 h
# Description: (§1) To check the metabolic activity of cells correlating with cell viability, cells were treated with the vehicle control (0.1% DMSO), digitonin as the positive control for cytotoxicity at 20 μg/mL (HEK293 cells) or 50 μg/mL (EL-4-mRORγt cells), or the compounds of interest at 5 μM for 18 h (HEK293 cells) or 20–24 h (EL-4-mRORγt cells). The next day, the medium was carefully removed and replaced with stripped DMEM without phenol red, containing 10 μg/mL resazurin sodium salt. Cells were incubated for 5 h before RFU values were measured at λem = 590 nm using a spectrophotometer. Cell viability was calculated as follows: Cell viability(%)=100×RFU value after compound treatment/RFU value after vehicle control treatment Cytotoxicity was defined as cell viability under 70% according to the ISO 10993–5 guidelines. Cell viability <90% is explicitly stated in the respective figure.
# full-length human RORγ = molecular target: T1, full-length human RORγ (Homo sapiens, UniProt P51449); assay: Full-length RORγ luciferase assay (RORE-LUC reporter); type: cell-based; conditions: HEK293 cells, 5 μM
# T1 construct: Encodes for the full-length human RORγ; expressed in transfected cells; host or cells: HEK293
# T1 sequence (P51449 1-518): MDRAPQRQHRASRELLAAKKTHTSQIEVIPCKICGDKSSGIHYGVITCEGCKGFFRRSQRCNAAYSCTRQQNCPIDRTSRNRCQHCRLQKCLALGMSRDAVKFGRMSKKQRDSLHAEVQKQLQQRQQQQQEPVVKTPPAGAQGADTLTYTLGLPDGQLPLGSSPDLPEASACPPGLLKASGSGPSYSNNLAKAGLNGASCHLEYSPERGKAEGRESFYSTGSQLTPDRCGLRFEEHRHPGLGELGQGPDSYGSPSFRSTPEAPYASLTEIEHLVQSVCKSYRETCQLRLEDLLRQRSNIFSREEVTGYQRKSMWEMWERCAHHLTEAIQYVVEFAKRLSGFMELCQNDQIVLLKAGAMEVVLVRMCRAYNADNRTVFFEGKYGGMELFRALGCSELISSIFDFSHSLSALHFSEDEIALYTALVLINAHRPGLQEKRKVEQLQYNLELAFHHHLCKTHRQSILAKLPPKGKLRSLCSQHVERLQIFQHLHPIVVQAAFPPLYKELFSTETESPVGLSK
# Description: (§2) For luciferase assays, 8 × 10^6 HEK293 cells were seeded on 150 mm cell culture dishes and incubated for 5 h. Afterward, cells were transfected with the calcium phosphate coprecipitation method using 5 μg of the nuclear receptor (Gal4-hRORγ or full-length human RORγ), 5 μg of a luciferase reporter (pTK-MH100 × 4-LUC for Gal4-hRORγ experiments or RORE-LUC for full-length human RORγ experiments) and 3 μg eGFP-N1 (for assessing transfection efficiency) plasmid DNA and incubated overnight. […] The medium was changed the following day, and cells were further incubated for another four to 5 h before trypsin/EDTA was added to detach them from the dishes. […] RLUs were normalized to relative fluorescence units (RFU) to account for differences in cell number and transfection efficiency and then normalized to the vehicle control. Results are expressed as fold activation relative to the vehicle control.
# (§3) Concentration–response data were analyzed in GraphPad Prism version 10 by three-parameter logistic nonlinear regression, with the Hill slope constrained to a theoretical value of −1.0. An IC50 value was determined only for compounds yielding a statistically reliable fit. […] In these cases, only the maximal inhibition achieved at the highest tested concentration (I max(%) at 5 μM) is reported, calculated as follows: Imax(%)=(1−Bottom/Top)×100 (“top” = baseline activity measured at the lowest concentration, “bottom” = residual activity observed at the highest concentration, corresponding to the maximal inhibitory effect).
# Gal4-hRORγ = molecular target: T2, Gal4-hRORγ (Homo sapiens, UniProt P51449); assay: Gal4-RORγ mammalian one-hybrid luciferase assay; type: cell-based; conditions: HEK293 cells
# T2 construct: Encodes for a hRORγ-LBD:Gal4-DBD fusion protein; expressed in transfected cells; host or cells: HEK293
# T2 sequence (P51449 269-508 limits assumed): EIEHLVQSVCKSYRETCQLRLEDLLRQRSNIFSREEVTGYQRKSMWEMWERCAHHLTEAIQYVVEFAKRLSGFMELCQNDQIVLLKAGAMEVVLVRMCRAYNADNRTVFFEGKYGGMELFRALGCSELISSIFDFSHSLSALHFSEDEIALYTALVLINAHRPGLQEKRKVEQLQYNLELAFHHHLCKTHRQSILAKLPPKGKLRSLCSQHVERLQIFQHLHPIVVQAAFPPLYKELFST
# Description: as §2, §3
# Gal4-RORγ H479L = molecular target: T3, Gal4-RORγ H479L (Homo sapiens, UniProt P51449, H479L); assay: Gal4-RORγ H479L mutant luciferase assay; conditions: 5 μM
# T3 sequence (P51449 269-508 H479L limits assumed): T2 sequence (P51449 269-508 limits assumed) with H211L
# Description: Gal4-hRORγ H323A and H479L mutants were generated using the QuikChange Lightning Site-Directed Mutagenesis Kit according to the manufacturer’s instructions. Briefly, 10 ng template DNA (Gal4-hRORγ) was PCR-amplified with the respective mutagenic forward and reverse primers listed in Table S3, which were designed using the QuikChange Primer Design tool (https://www.agilent.com/store/primerDesignProgram.jsp). […] Two μL of the PCR product were then transformed into XL1-Blue competent E. coli according to a protocol provided by NEB. […] After centrifuging the main culture at 5691g for 10 min, the supernatant was decanted, and plasmid preparation was performed using the PureLink HiPure Plasmid Midiprep Kit according to the manufacturer’s instructions. DNA yields and purities were checked using a NanoDrop 2000c (Thermo Fisher Scientific, Waltham, MA, USA).
# HEK293 cells = assay: Resazurin conversion assay in HEK293 cells; type: cell-based, human; conditions: 5 μM, 18 h
# Description: as §1
# [1] = test system: Il17a and Il17f (Il17a/f); assay: RT-qPCR of Il17a and Il17f in EL-4-mRORγt cells; type: cell-based, murine; conditions: 5 μM, 20–24 h, then 4.5-h PMA and ionomycin
# Description: For RT-qPCR assays, 5 × 10^5 EL-4-mRORγt cells were seeded in 500 μL complete DMEM per well of a 24-well plate and treated with the vehicle control, the positive control, or the compounds of interest. After incubation for 20–24 h, cells were stimulated with Cell Activation Cocktail (PMA: 40.5 μM, ionomycin: 669.3 μM; 500X) for 4.5 h. Afterward, total RNA was isolated using the innuPREP RNA Mini Kit 2.0 according to the manufacturer’s instructions. According to the manufacturer’s instructions, 1 μg RNA was reverse-transcribed into cDNA using the High-Capacity cDNA Reverse Transcription Kit. RT-qPCR was performed using the Luna Universal qPCR Master Mix on a LightCycler 480 (Roche Diagnostics, Rotkreuz, Switzerland) according to the manufacturer’s instructions. […] Livak’s 2−ΔΔCt method was employed to determine the expression levels of RORγ target genes. This involved normalizing the target gene expression to the expression levels of the control gene 18s, followed by further normalization to the vehicle control.
# hRORγ LBD = molecular target: T4, hRORγ LBD (Homo sapiens, UniProt P51449); assay: Thermal stability by nano differential scanning fluorimetry (nanoDSF); type: binding; conditions: RORγ-LBD with 4 equiv ligand vs without ligand; mean ± SD
# T4 construct: His tag (N, cleaved yes); made in house; host or cells: Escherichia coli BL21 DE3
# T4 sequence (P51449 264-518): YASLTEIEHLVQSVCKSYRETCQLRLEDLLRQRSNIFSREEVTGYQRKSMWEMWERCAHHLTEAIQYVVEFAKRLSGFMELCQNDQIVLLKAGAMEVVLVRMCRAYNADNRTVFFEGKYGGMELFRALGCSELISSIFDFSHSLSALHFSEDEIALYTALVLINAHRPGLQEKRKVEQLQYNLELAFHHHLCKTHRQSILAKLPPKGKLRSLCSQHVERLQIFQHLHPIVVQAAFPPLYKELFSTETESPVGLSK
# Description: Soluble proteins were purified on Ni Hitrap FFcrude column (Cytiva), followed by His tag removal by thrombin (MP Biomedicals) cleavage and by size exclusion chromatography on HiLoad Superdex200 column (Cytiva) equilibrated in 20 mM Tris-HCl pH 7.5, 150 mM NaCl, 1 mM TCEP (Hampton Research). Purity and homogeneity of the hRORγ LBD were assessed by SDS-PAGE. The purified protein was concentrated to 0.5–1.0 mg/mL with an Amicon Ultra 10 kDa MWCO. The aliquots of purified LBD were incubated with 4 equiv ligands or vehicle for thermal stability experiments.
# Fluorescence-based thermal experiments were performed using a Prometheus NT.48 (NanoTemper Technologies, Germany) with grade standard capillaries containing 10 μL of RORγLBD with different ligands. […] NanoTemper PR. Stability Analysis v1.0.2 was used to fit the data and determine the melting temperatures Tm.
structure (smiles),measurement,setting,value
"C=C(C)[C@@H]1CC[C@]2(C(=O)O)CC[C@]3(C)[C@H](CC[C@@H]4[C@@]5(C)CC[C@H](O)C(C)(C)[C@@H]5CC[C@]43C)[C@@H]12 [Betulinic acid, reference compound]","Cytotoxic effects, resazurin conversion assay",EL-4-mRORγt cells,no cytotoxic effects
same,"Imax(%) at 5 μM, full-length RORγ luciferase assay",full-length human RORγ,38%
same,"Imax(%) at 5 μM, Gal4-RORγ luciferase assay",Gal4-hRORγ; 5 μM,47%
same,pIC50,"Gal4-hRORγ; 18 h treatment, up to 5 μM",5.92
same,Activity on Gal4-RORγ H479L vs WT,Gal4-RORγ H479L,notable decrease in activity
same,"Cytotoxic effects, resazurin conversion assay",HEK293 cells,no cytotoxic effects
same,Il17a/f expression,[1],reduction of Il17a/f expression
same,ΔTm measured with nano differential scanning fluorimetry,hRORγ LBD,9.1 ± 0.2 °C
